The values below come from patent publication US11753407B2, “Compounds for treating spinal muscular atrophy” (PTC Therapeutics, Inc., priority 2012, dated 2023).

The subject of data set [1] is SMN2 minigene mRNA (SMN2-A minigene) in HEK293H cells. The data set can be described thus: SMN2 minigene mRNA splicing RT-qPCR assay in cultured cells. It counts as cell-based, human. The settings on record: Homo sapiens, HEK293-H; concentration increasing full length SMN2 mRNA 1.5-fold relative to vehicle-treated cells; HEK293H cells with SMN2-A minigene, 24 hours, 7-point concentration data; read-out: EC1.5x for production of full length SMN2 mRNA. In short, it runs like this:
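EC1.5× values derive from a 24 h treatment of SMN2-A minigene HEK293H cells and GAPDH-normalized RT-qPCR of exon 7-included minigene mRNA relative to vehicle-treated cells.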
(In general: Real-time PCR tracks product formation cycle by cycle.)

Data set [2] deals with Smn protein in SMA patient fibroblast cells (GM03813). The data set can be described thus: Smn protein assay in cultured cells (SMN HTRF). It is filed as cell-based, human. To be noted: SMA patient fibroblast cells, 48 hours; for maximum fold (Fold) increase of Smn protein: 7-point concentration data, fold relative to vehicle control; for EC1.5x for Smn protein expression: 7-point concentration curve, SMN HTRF, concentration producing 1.5 times Smn protein vs DMSO vehicle control. A digest of the protocol:
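Cells were cultured 72 h, seeded at 5,000/well and dosed with seven concentrations (3.16-fold apart) for 48 h. HTRF on lysates, read at 665 and 620 nm, gave blank-corrected ΔF values relative to DMSO. Potency is reported as EC1.5×, efficacy as maximal fold Smn increase.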

SMILES strings stand for the structures.

A word on the melting point: it is the temperature of the solid-liquid transition.

With `COc1ccc(-c2cc(=O)n3cc(N4CCN(C)CC4)cc(F)c3n2)cc1OC` [Compound 40, 2-(3,4-dimethoxyphenyl)-9-fluoro-7-(4-methylpiperazin-1-yl)-4H-pyrido[1,2-a]pyrimidin-4-one], the melting point was 183 to 185 °C. Further, the EC (1.5-fold increase) in data set [1] fell in the range of 3 to 30 µM. In data set [2], the “maximum fold (Fold) increase of Smn protein” value (“maximum fold (Fold) increase” for short) is listed as “* (A maximum fold increase of ≤1.2 is indicated by one star (*))”.
`O=c1cc(-c2cccc(Cl)c2)nc2ccc(N3CCNCC3)cn12` [Compound 41, 2-(3-chlorophenyl)-7-(piperazin-1-yl)-4H-pyrido[1,2-a]pyrimidin-4-one] displayed a melting point of 185 to 189 °C. Moreover, the EC (1.5-fold increase) in data set [1] fell in the range of 0.3 to 1 µM. In data set [2], the “maximum fold (Fold) increase” value is “*** (a fold increase between >1.35 and ≤1.5 is indicated by three stars (***))”.
In turn, `O=c1cc(-c2ccc(Cl)cc2)nc2ccc(N3CCNCC3)cn12` [Compound 42, 2-(4-chlorophenyl)-7-(piperazin-1-yl)-4H-pyrido[1,2-a]pyrimidin-4-one] returned a melting point of 207 to 212 °C. The EC (1.5-fold increase) in data set [1] lay in the range of 1 to 3 µM. Besides, the “maximum fold (Fold) increase” value in data set [2] was “* (A maximum fold increase of ≤1.2 is indicated by one star (*))”.
`O=c1cc(-c2cccc(C(F)(F)F)c2)nc2ccc(N3CCNCC3)cn12` [Compound 43, 7-(piperazin-1-yl)-2-[3-(trifluoromethyl)phenyl]-4H-pyrido[1,2-a]pyrimidin-4-one]: the melting point fell in the range of 199 to 207 °C. Moreover, the EC (1.5-fold increase) in data set [1] fell in the range of 0.1 to 0.3 µM. In data set [2], the “EC1.5x for Smn protein expression” value is “** (an EC1.5× between >1 μM and ≤3 μM is indicated by two stars (**))”; the “maximum fold (Fold) increase” value was “*** (a fold increase between >1.35 and ≤1.5 is indicated by three stars (***))”.
With `O=c1cc(-c2ccc(C(F)(F)F)cc2)nc2ccc(N3CCNCC3)cn12` [Compound 44, 7-(piperazin-1-yl)-2-[4-(trifluoromethyl)phenyl]-4H-pyrido[1,2-a]pyrimidin-4-one], the melting point was 285 °C (dec.). For the same molecule, in data set [1], the EC (1.5-fold increase) is 1 to 3 µM. Also, in data set [2], the “maximum fold (Fold) increase” value is recorded as “* (A maximum fold increase of ≤1.2 is indicated by one star (*))”.
`Cc1cccc(-c2cc(=O)n3cc(N4CCNCC4)ccc3n2)c1` [Compound 45, 2-(3-methylphenyl)-7-(piperazin-1-yl)-4H-pyrido[1,2-a]pyrimidin-4-one] displayed a melting point of 183 to 187 °C. Besides, in data set [1], the EC (1.5-fold increase) is 3 to 30 µM. In addition, the “maximum fold (Fold) increase” value in data set [2] is “** (a fold increase between >1.2 and ≤1.35 is indicated by two stars (**))”.
In turn, `O=c1cc(-c2ccc(F)cc2)nc2ccc(N3CCNCC3)cn12` [Compound 46, 2-(4-fluorophenyl)-7-(piperazin-1-yl)-4H-pyrido[1,2-a]pyrimidin-4-one] displayed a melting point of 214 to 218 °C. Also, the EC (1.5-fold increase) in data set [1] lay within 1 to 3 µM. Further, in data set [2], the “maximum fold (Fold) increase” value is “*** (a fold increase between >1.35 and ≤1.5 is indicated by three stars (***))”.
Turning to `O=c1cc(-c2ccc([N+](=O)[O-])cc2)nc2ccc(N3CCNCC3)cn12` [Compound 47, 2-(4-nitrophenyl)-7-(piperazin-1-yl)-4H-pyrido[1,2-a]pyrimidin-4-one], the melting point was in the range of 237 to 242 °C. For the same molecule, the EC (1.5-fold increase) in data set [1] fell in the range of 1 to 3 µM. Also, in data set [2], the “maximum fold (Fold) increase” value is “*** (a fold increase between >1.35 and ≤1.5 is indicated by three stars (***))”.
With `COc1ccc(-c2cc(=O)n3cc(NC4CCNCC4)cc(F)c3n2)cc1OC` [Compound 48, 2-(3,4-dimethoxyphenyl)-9-fluoro-7-(piperidin-4-ylamino)-4H-pyrido[1,2-a]pyrimidin-4-one], the melting point lay in the range of 224 to 226 °C. The EC (1.5-fold increase) in data set [1] is 3 to 30 µM. The “maximum fold (Fold) increase” value in data set [2] was “* (A maximum fold increase of ≤1.2 is indicated by one star (*))”.
The matching figures for `CN(C)c1ccc(-c2cc(=O)n3cc(N4CCNCC4)cc(F)c3n2)cc1` [Compound 49, 2-[4-(dimethylamino)phenyl]-9-fluoro-7-(piperazin-1-yl)-4H-pyrido[1,2-a]pyrimidin-4-one]: 216 to 218 °C, 3 to 30 µM and “* (A maximum fold increase of ≤1.2 is indicated by one star (*))”.
Consider `C[C@@H]1CN(c2cc(F)c3nc(-c4ccc(N(C)C)cc4)cc(=O)n3c2)CCN1` [Compound 50, 2-[4-(dimethylamino)phenyl]-9-fluoro-7-[(3R)-3-methylpiperazin-1-yl]-4H-pyrido[1,2-a]pyrimidin-4-one], for which the melting point lay in the range of 205 to 207 °C. Moreover, in data set [1], the EC (1.5-fold increase) was in the range of 3 to 30 µM. In addition, the “maximum fold (Fold) increase” value in data set [2] is “** (a fold increase between >1.2 and ≤1.35 is indicated by two stars (**))”.
In the case of `O=c1cc(-c2ccccc2F)nc2ccc(N3CCNCC3)cn12` [Compound 51, 2-(2-fluorophenyl)-7-(piperazin-1-yl)-4H-pyrido[1,2-a]pyrimidin-4-one], the melting point fell in the range of 142 to 146 °C. The EC (1.5-fold increase) in data set [1] is 3 to 30 µM. Further, the “maximum fold (Fold) increase” value in data set [2] was “** (a fold increase between >1.2 and ≤1.35 is indicated by two stars (**))”.
In the case of `CN(C)c1ccc(-c2cc(=O)n3cc(N4CCNCC4)ccc3n2)cc1` [Compound 53, 2-[4-(dimethylamino)phenyl]-7-(piperazin-1-yl)-4H-pyrido[1,2-a]pyrimidin-4-one], the melting point was 211 to 215 °C. In data set [1], the EC (1.5-fold increase) lay in the range of 1 to 3 µM. The “maximum fold (Fold) increase” value in data set [2] is given as “* (A maximum fold increase of ≤1.2 is indicated by one star (*))”.
The molecule `C[C@H]1CN(c2ccc3nc(-c4ccc(N(C)C)cc4)cc(=O)n3c2)CCN1` [Compound 54, 2-[4-(dimethylamino)phenyl]-7-[(3S)-3-methylpiperazin-1-yl]-4H-pyrido[1,2-a]pyrimidin-4-one] showed a melting point of 199 to 202 °C. For the same molecule, the EC (1.5-fold increase) in data set [1] fell in the range of 1 to 3 µM. For the same molecule, the “maximum fold (Fold) increase” value in data set [2] is reported as “* (A maximum fold increase of ≤1.2 is indicated by one star (*))”.
On the same counts, the results for `Cc1ccc(-c2cc(=O)n3cc(N4CCNCC4)ccc3n2)cc1C` [Compound 55, 2-(3,4-dimethylphenyl)-7-(piperazin-1-yl)-4H-pyrido[1,2-a]pyrimidin-4-one] are 186 to 188 °C, 1 to 3 µM and “* (A maximum fold increase of ≤1.2 is indicated by one star (*))”.
Turning to `Cc1ccc(-c2cc(=O)n3cc(N4CCN[C@@H](C)C4)ccc3n2)cc1C` [Compound 56, 2-(3,4-dimethylphenyl)-7-[(3S)-3-methylpiperazin-1-yl]-4H-pyrido[1,2-a]pyrimidin-4-one], the melting point lay within 207 to 209 °C. Further, in data set [1], the EC (1.5-fold increase) was 1 to 3 µM. Moreover, the “maximum fold (Fold) increase” value in data set [2] was “* (A maximum fold increase of ≤1.2 is indicated by one star (*))”.
On the same counts, the results for `CN(C)c1cccc(-c2cc(=O)n3cc(N4CCNCC4)ccc3n2)c1` [Compound 57, 2-[3-(dimethylamino)phenyl]-7-(piperazin-1-yl)-4H-pyrido[1,2-a]pyrimidin-4-one] are 178 to 180 °C, 3 to 30 µM and “* (A maximum fold increase of ≤1.2 is indicated by one star (*))”.
The matching figures for `C[C@H]1CN(c2ccc3nc(-c4cccc(N(C)C)c4)cc(=O)n3c2)CCN1` [Compound 58, 2-[3-(dimethylamino)phenyl]-7-[(3S)-3-methylpiperazin-1-yl]-4H-pyrido[1,2-a]pyrimidin-4-one]: 144 to 146 °C, 3 to 30 µM and “* (A maximum fold increase of ≤1.2 is indicated by one star (*))”.
`O=c1cc(-c2ccc(OC(F)F)cc2)nc2ccc(N3CCNCC3)cn12` [Compound 59, 2-[4-(difluoromethoxy)phenyl]-7-(piperazin-1-yl)-4H-pyrido[1,2-a]pyrimidin-4-one] came in with a melting point of 131 to 133 °C. Besides, the EC (1.5-fold increase) in data set [1] lay within 1 to 3 µM. The “maximum fold (Fold) increase” value in data set [2] is “* (A maximum fold increase of ≤1.2 is indicated by one star (*))”.
The matching figures for `C[C@H]1CN(c2ccc3nc(-c4ccc(OC(F)F)cc4)cc(=O)n3c2)CCN1` [Compound 60, 2-[4-(difluoromethoxy)phenyl]-7-[(3S)-3-methylpiperazin-1-yl]-4H-pyrido[1,2-a]pyrimidin-4-one]: 166 to 168 °C, 1 to 3 µM and “* (A maximum fold increase of ≤1.2 is indicated by one star (*))”.
`O=c1cc(-c2cccc(F)c2)nc2ccc(N3CCNCC3)cn12` [Compound 61, 2-(3-fluorophenyl)-7-(piperazin-1-yl)-4H-pyrido[1,2-a]pyrimidin-4-one] registered a melting point of 153 to 156 °C. Also, the EC (1.5-fold increase) in data set [1] was 0.3 to 1 µM. Also, in data set [2], the “EC1.5x for Smn protein expression” value was “*** (an EC1.5× between >0.3 μM and ≤1 μM is indicated by three stars (***))”; the “maximum fold (Fold) increase” value is “**** (a fold increase between >1.5 and ≤1.65 is indicated by four stars (****))”.
